For the assay, the target named is T1, angiotensin converting enzyme (ACE) (Oryctolagus cuniculus, UniProt P12822).
T1 construct: The ACE was extracted from rabbit lung acetane powder (Pel-Freez, Biol. Inc.); tissue Pel-Freez, Biol. Inc; host or cells: rabbit lung acetone powder, crude extract (40,000 g supernatant)
T1 sequence (P12822 34-1310): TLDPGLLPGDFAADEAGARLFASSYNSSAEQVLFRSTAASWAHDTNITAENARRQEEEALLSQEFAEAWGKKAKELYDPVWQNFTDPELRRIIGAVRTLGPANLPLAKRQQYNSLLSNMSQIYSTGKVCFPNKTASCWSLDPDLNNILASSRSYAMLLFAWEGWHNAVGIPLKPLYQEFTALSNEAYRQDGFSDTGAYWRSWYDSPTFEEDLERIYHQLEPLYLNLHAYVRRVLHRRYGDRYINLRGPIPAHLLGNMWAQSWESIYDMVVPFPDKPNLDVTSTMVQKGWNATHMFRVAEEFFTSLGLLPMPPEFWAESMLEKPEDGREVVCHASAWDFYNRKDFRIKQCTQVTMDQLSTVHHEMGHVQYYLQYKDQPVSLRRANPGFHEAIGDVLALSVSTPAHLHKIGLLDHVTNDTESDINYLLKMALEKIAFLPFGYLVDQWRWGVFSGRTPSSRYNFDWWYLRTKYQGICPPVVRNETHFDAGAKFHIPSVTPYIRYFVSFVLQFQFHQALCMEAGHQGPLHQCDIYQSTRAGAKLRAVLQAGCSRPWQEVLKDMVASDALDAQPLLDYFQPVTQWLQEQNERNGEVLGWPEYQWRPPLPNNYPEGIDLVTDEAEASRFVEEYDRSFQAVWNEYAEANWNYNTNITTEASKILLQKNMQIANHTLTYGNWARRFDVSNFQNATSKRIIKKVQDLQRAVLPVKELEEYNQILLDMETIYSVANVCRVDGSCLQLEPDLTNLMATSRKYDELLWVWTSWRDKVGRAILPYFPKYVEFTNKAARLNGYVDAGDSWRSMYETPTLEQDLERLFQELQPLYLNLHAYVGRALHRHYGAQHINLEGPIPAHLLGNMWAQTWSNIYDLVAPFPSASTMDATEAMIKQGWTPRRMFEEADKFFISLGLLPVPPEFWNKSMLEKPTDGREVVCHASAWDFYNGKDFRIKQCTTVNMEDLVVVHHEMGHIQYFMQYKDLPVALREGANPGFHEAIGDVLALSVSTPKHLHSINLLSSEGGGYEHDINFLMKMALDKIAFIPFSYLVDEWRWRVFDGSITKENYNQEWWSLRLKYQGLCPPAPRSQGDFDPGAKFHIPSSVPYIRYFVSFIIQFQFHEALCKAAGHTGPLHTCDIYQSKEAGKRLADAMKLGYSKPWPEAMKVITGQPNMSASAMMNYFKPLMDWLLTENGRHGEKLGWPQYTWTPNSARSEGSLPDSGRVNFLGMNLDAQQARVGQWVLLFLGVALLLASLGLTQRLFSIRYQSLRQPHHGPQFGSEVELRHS
The assay is described as follows: Spectrophotometric assay for angiotensin converting enzyme inhibitors. The assay is classed as biochemical. Conditions: crude ACE extract from rabbit lung; substrate benzoyl-glycyl-histidyl-leucine; 30 minutes at 37° C.; absorbance at 228 nm. As to the method: The activity of the novel compounds of this invention as hypotensive agents was established in two systems which measure their ability as angiotensin converting enzyme inhibitors; namely, a spectrophotometric assay of the compounds in vitro and by the measurement of the blood pressure lowering effect of the compounds in the aorta-coarcted renal hypertensive rats.
The in vitro activity for inhibition of the angiotensin converting enzyme (ACE) was measured by the method of Cushman, D. W. and Cheung, H. S., Biochem. Pharmacol. 20, 1637-1648 (1971), using benzoyl-glycyl-histidyl-leucine as the substrate. The reaction mixture consisted of 50 ml. of potassium phosphate (500 mM., […]), […]. of sodium chloride (2500 mM.), 25 ml. of substrate (50 mM), 30 to 50 ml. of the crude extract of ACE, 10 ml. of test compound (2.5 mM) or vehicle and a suitable amount of distilled water to give a total volume of 250 ml. This reaction mixture was incubated for 30 minutes at 37° C. and the reaction was then terminated by the addition of 250 ml. of 1 N hydrochloric acid. The hippuric acid was then extracted with 1.5 ml. of ethyl acetate by vortex mixing for 15 seconds. After centrifugation, 1 ml. of the ethyl acetate layer was pipetted into a new tube and evaporated to dryness. The extracted hippuric acid was then dissolved in 1 ml. of water and the amount of this acid was then measured by its absorbance at 228 nm. The ACE was extracted from rabbit lung acetane powder (Pel-Freez, Biol. Inc.) by blending 5 g. of the powder in 50 ml. of phosphate buffer (50 mM, pH 8.3) and then centrifuging at 40,000 g for 30 minutes. The supernatant was then kept at 5° C. and used as the enzyme source. The activity of the ACE inhibitor was calculated as the percent inhibition of ACE activity compared to the control value of that particular assay. A full dose-response inhibitory curve is then performed to determine the IC50 value which may be defined as the molar concentration of a compound that will inhibit the ACE activity by 50%.

Among the data in patent publication US4226775A, “Substituted thio-substituted benzyl-propionyl-L-prolines” (American Cyanamid Company, priority 1979, dated 1980) are IC50 values, retold here.

What is called IC50 is the concentration at which inhibition is half-maximal.

`CC(=O)SC(CC(=O)N1CCC[C@H]1C(=O)O)C(=O)c1ccc(Oc2ccc(Cl)cc2)cc1` (stereo partly drawn) [1-{3-Acetylthio-3-[4-(4-chlorophenoxy)benzoyl]-propionyl}-L-proline] yielded an IC50 of 358 nM.
